Where two headings read alike, the source gives them in different places.
How the values were obtained:
Type in all cases: cell-based
mouse PPAR δ = biological target: T1, mouse PPAR δ (Mus musculus, UniProt P35396); assay: PPAR δ transactivation (GAL4 chimera luciferase gene activation) assay; conditions: GAL4 DNA binding domain-PPAR δ ligand binding domain chimera, pFR-Luc reporter, HEK293T cells, 20 hours incubation; read-out: Gene Activation Assay: EC50 PPAR delta
T1 construct: expressed in transfected cells; host or cells: HEK293T
T1 sequence (P35396 210-438 limits assumed): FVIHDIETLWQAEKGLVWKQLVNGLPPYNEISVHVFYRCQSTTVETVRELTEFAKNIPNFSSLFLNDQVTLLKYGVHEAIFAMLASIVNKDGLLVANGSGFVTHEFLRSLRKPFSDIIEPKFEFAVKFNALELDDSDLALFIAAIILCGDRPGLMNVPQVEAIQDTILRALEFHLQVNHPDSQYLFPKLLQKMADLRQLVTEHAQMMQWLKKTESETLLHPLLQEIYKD
Source text: (§1) Measurement of PPARγ, δ, and α Transactivation Activity
(§2) Chimeric receptors were constructed in which the yeast transcription factor GAL4 DNA binding domain was fused to the ligand binding domain of either mouse PPARγ, mouse PPAR δ or mouse PPAR α in order to assess the ability of the compounds of the present invention to activate gene expression in a PPAR-dependent manner. The chimeric receptor expression plasmids (GAL4-nPPARγ, GAL4-mPPAR δ and GAL4-PPAR α) and the reporter plasmid containing 5×GAL4 binding site (pFR-Luc, obtained from Stratagene) were transfected into HEK293T cells using the Lipofectamine 2000 reagent (Invitrogen), according to the manufacturers instructions. Six hours after transfection, the culture medium was renewed and the cells were incubated for 20 hours in presence of either 1) DMSO (vehicle), 2) a compound of the invention or 3) a reference compound for comparison. Rosiglitazone (obtained from WDF Pharma) was used as a reference compound for the PPARγ assay; GW501516 (prepared as described in Sznaidman et al. Bioorg. Med. Chem. Lett. (2003) 13:1517-1521) was used as a reference compound for the PPAR δ assay and GW7647 (obtained from Sigma) was used as a reference compound for the PPAR α assay. Luciferase activity was measured as a reporter of gene expression. Luciferase activity on the cell lysates using the Steady-Glo reagent was measured according to the manufacturers instructions.

mouse PPAR α = biological target: T2, mouse PPAR α (Mus musculus, UniProt P23204); assay: PPAR α transactivation (GAL4 chimera luciferase gene activation) assay; conditions: GAL4 DNA binding domain-PPAR α ligand binding domain chimera, pFR-Luc reporter, HEK293T cells, 20 hours incubation; read-out: Gene Activation Assay: EC50 PPAR alpha
T2 construct: expressed in transfected cells; host or cells: HEK293T
T2 sequence (P23204 239-466 limits assumed): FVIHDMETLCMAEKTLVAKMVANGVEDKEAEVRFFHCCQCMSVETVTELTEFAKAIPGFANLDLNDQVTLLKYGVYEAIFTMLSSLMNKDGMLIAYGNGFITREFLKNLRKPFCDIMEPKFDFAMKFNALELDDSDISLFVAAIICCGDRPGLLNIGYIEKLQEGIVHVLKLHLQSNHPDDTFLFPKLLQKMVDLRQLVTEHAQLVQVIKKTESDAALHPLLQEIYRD
Source text: as §1, §2

mouse PPARγ = biological target: T3, mouse PPARγ (Mus musculus, UniProt P37238); assay: PPARγ transactivation (GAL4 chimera luciferase gene activation) assay; conditions: GAL4 DNA binding domain-PPARγ ligand binding domain chimera, pFR-Luc reporter, HEK293T cells, 20 hours incubation
T3 construct: expressed in transfected cells; host or cells: HEK293T
T3 sequence (P37238 238-503 limits assumed): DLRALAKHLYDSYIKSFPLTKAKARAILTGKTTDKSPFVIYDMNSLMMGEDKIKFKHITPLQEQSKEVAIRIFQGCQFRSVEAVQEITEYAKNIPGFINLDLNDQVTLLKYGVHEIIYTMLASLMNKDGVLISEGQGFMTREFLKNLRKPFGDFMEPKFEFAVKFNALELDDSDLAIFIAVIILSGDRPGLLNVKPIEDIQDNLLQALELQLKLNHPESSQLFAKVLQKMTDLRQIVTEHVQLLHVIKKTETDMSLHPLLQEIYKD
Source text: as §1, §2

[1] = read-out: Gene Activation Assay: EC50 PPAR gamma

Cc1cc(SCc2nn(-c3ccc(C(F)(F)F)cc3)nc2C)ccc1OCC(=O)O [Compound 100, {2-Methyl-4-[5-methyl-2-(4-trifluoromethyl-phenyl)-2H-[1,2,3]triazol-4-ylmethylsulfanyl]-phenoxy}-acetic acid]
EC50 (mouse PPAR δ): ≤ 10 µM
EC50 (mouse PPAR α): > 10 µM
EC50 (mouse PPARγ; [1]): > 30 µM

Cc1cc(SCc2nn(-c3ccc(C(F)(F)F)cc3)nc2C)ccc1OC(C)C(=O)O (stereo not drawn) [Compound 110, 2-{2-Methyl-4-[5-methyl-2-(4-trifluoromethyl-phenyl)-2H-[1,2,3]triazol-4-ylmethylsulfanyl]-phenoxy}-propionic acid]
EC50 (mouse PPAR δ): ≤ 10 µM
EC50 (mouse PPAR α): ≤ 10 µM
EC50 (mouse PPARγ; [1]): ≤ 10 µM

Cc1cc(SCc2nn(-c3ccc(C(F)(F)F)cc3)nc2C)ccc1OC(C)(C)C(=O)O [Compound 210, 2-Methyl-2-{2-methyl-4-[5-methyl-2-(4-trifluoromethyl-phenyl)-2H-[1,2,3]triazol-4-ylmethylsulfanyl]-phenoxy}-propionic acid]
EC50 (mouse PPAR δ): ≤ 10 µM
EC50 (mouse PPAR α): ≤ 10 µM
EC50 (mouse PPARγ; read-out: Gene Activation Assay: EC50 PPAR gamma (number printed instead of a symbol)): 10 µM

Cc1cc(SCc2nn(-c3ccc(C(F)(F)F)cc3)nc2C(C)C)ccc1OCC(=O)O [Compound 320, {4-[5-Isopropyl-2-(4-trifluoromethyl-phenyl)-2H-[1,2,3]triazol-4-ylmethylsulfanyl]-2-methyl-phenoxy}-acetic acid]
EC50 (mouse PPAR δ): ≤ 10 µM
EC50 (mouse PPAR α): > 10 µM
EC50 (mouse PPARγ; [1]): > 30 µM

Cc1cc(SCc2nn(-c3ccc(C(F)(F)F)cc3)nc2-c2ccccc2)ccc1OCC(=O)O [Compound 340, {2-Methyl-4-[5-phenyl-2-(4-trifluoromethyl-phenyl)-2H-[1,2,3]triazol-4-ylmethylsulfanyl]-phenoxy}-acetic acid]
EC50 (mouse PPAR δ): ≤ 10 µM
EC50 (mouse PPAR α): ≤ 10 µM
EC50 (mouse PPARγ; [1]): > 30 µM

Cc1cc(SCc2nn(-c3ccc(C(F)(F)F)cc3)nc2C(F)(F)F)ccc1OCC(=O)O [Compound 360, {2-Methyl-4-[5-trifluoromethyl-2-(4-trifluoromethyl-phenyl)-2H-[1,2,3]triazol-4-ylmethylsulfanyl]-phenoxy}-acetic acid]
EC50 (mouse PPAR δ): ≤ 10 µM
EC50 (mouse PPAR α): > 10 µM
EC50 (mouse PPARγ; [1]): > 30 µM

COc1ccc(-n2nc(C)c(CSc3ccc(OCC(=O)O)c(C)c3)n2)cc1 [Compound 440, {4-[2-(4-Methoxy-phenyl)-5-methyl-2H-[1,2,3]triazol-4-ylmethylsulfanyl]-2-methyl-phenoxy}-acetic acid]
EC50 (mouse PPAR δ): ≤ 10 µM
EC50 (mouse PPAR α): > 10 µM
EC50 (mouse PPARγ; [1]): > 10 µM

Cc1cc(SCc2nn(-c3cccc(C(F)(F)F)c3)nc2C)ccc1OCC(=O)O [Compound 480, {2-Methyl-4-[5-methyl-2-(3-trifluoromethyl-phenyl)-2H-[1,2,3]triazol-4-ylmethylsulfanyl]-phenoxy}-acetic acid]
EC50 (mouse PPAR δ): ≤ 10 µM
EC50 (mouse PPAR α): ≤ 10 µM
EC50 (mouse PPARγ; [1]): > 10 µM

Cc1cc(SCCc2nn(-c3ccc(C(F)(F)F)cc3)nc2C)ccc1OCC(=O)O [Compound 580, (2-Methyl-4-{2-[5-methyl-2-(4-trifluoromethyl-phenyl)-2H-[1,2,3]triazol-4-yl]-ethylsulfanyl}-phenoxy)-acetic acid]
EC50 (mouse PPAR δ): ≤ 10 µM
EC50 (mouse PPAR α): ≤ 10 µM
EC50 (mouse PPARγ; [1]): > 30 µM

Cc1cc(SCc2nn(-c3ccc(Cl)c(Cl)c3)nc2C)ccc1OCC(=O)O [Compound 640, {4-[2-(3,4-Dichloro-phenyl)-5-methyl-2H-[1,2,3]triazol-4-ylmethylsulfanyl]-2-methyl-phenoxy}-acetic acid]
EC50 (mouse PPAR δ): ≤ 10 µM
EC50 (mouse PPAR α): > 10 µM
EC50 (mouse PPARγ; [1]): > 30 µM

CCCc1cc(CC(=O)O)ccc1OCc1nn(-c2ccc(C(F)(F)F)cc2)nc1C [Compound 660, {3-Propyl-4-[5-methyl-2-(4-trifluoromethyl-phenyl)-2H-[1,2,3]triazol-4-ylmethoxy]-phenyl}-acetic acid]
EC50 (mouse PPAR δ): ≤ 10 µM
EC50 (mouse PPAR α): > 30 µM
EC50 (mouse PPARγ; [1]): > 30 µM

Cc1nn(-c2ccc(C(F)(F)F)cc2)nc1COc1ccc(CC(=O)O)cc1 [Compound 670]
EC50 (mouse PPAR δ): ≤ 10 µM
EC50 (mouse PPAR α): > 10 µM
EC50 (mouse PPARγ; [1]): > 30 µM
